# Source: US20080242544A1, “Phytoactive Composition” (priority 2004, published 2008)
# System: Field Pansy
# Set-up: species or system Viola avensis
# Conditions: in vivo
row,Structure (SMILES),plant vigour of Pansy versus untreated
1,"Cc1cc(Cl)ccc1OCC(=O)O [MCPA, (4-chloro-2-methylphenoxy)acetic acid]",more vigorous plants than untreated only plants

# System: not given
# Conditions: Table 1, carriers; cited from earlier work
row,Structure (SMILES),logP(o/w)
1,"C[C@@H]1CC[C@@H](C(C)(C)S)C(=O)C1 [(1R,4R)-8-mercapto-3-p-menthanone]",2.9

# Same assay, conditions: Table 4, no pH given; cited from earlier work
row,Structure (SMILES),Log P
1,CCN(C(=O)n1nnn(-c2ccccc2Cl)c1=O)C1CCCCC1 [Fentrazamide],3.60
2,CCc1cccc(C)c1N(C(=O)CCl)C(C)COC (stereo not shown) [Metolachlor],3.00
3,CS(=O)(=O)c1ccc(C(=O)C2C(=O)CCCC2=O)c([N+](=O)[O-])c1 [Mesotrione],2.2

# Same assay, conditions: Table 5, no pH given; cited from earlier work
row,Structure (SMILES),Log Pow
1,N#Cc1cc(Br)c(O)c(Br)c1 [bromoxynil],2.8
2,CON(C)C(=O)Nc1ccc(Oc2ccc3c(c2)OC(C)(OC)CC3(C)C)cc1 (stereo not shown) [metobenzuron],6.3
3,CCCOCCN(C(=O)CCl)c1c(CC)cccc1CC [pretilachlor],4.1
4,CCc1cccc(C)c1N(C(=O)CCl)[C@@H](C)COC [S-metolachlor],3.1
5,CCCN(CCC)c1c([N+](=O)[O-])cc(C(F)(F)F)cc1[N+](=O)[O-] [trifluralin],4.8
6,CCCC(=NOCC)C1=C(O)CC(C2CCCSC2)CC1=O (stereo not shown) [cycloxydim],1.4
7,Cc1ccc(NC(=O)N(C)C)cc1Cl [chlorotoluron],2.5
8,O=C(O)c1cc(Oc2ccc(C(F)(F)F)cc2Cl)ccc1[N+](=O)[O-] [acifluorfen],4.2
9,CC(=O)Nc1cc(NS(=O)(=O)C(F)(F)F)c(C)cc1C [mefluidide],2
10,COC(=O)c1c(Cl)c(Cl)c(C(=O)OC)c(Cl)c1Cl [chlorthal-dimethyl],4.3
11,CN(C)C(=O)Nc1ccccc1 [fenuron],1.4
12,CCc1cccc(C)c1N(C(=O)CCl)C(C)COC (stereo not shown) [Metolachlor],2.9
13,CON(C)C(=O)Nc1ccc(Cl)c(Cl)c1 [linuron],3
14,CCOc1nc(F)cc2nc(S(=O)(=O)Nc3c(Cl)cccc3C(=O)OC)nn12 [cloransulam-methyl],1.2
15,CCC(CC)Nc1c([N+](=O)[O-])cc(C)c(C)c1[N+](=O)[O-] [pendimethalin],5.2
16,Cc1nnc(-c2ccccc2)c(=O)n1N [metamitron],0.8
17,CCNc1nc(Cl)nc(NC(C)(C)C)n1 [terbuthylazine],3.2
18,CCSC(=O)N1CCCCCC1 [molinate],2.9
19,COC(=O)[C@@H](C)Oc1ccc(Oc2ncc(C(F)(F)F)cc2Cl)cc1 [haloxyfop-P-methyl],4
20,CCNc1nc(Cl)nc(NCC)n1 [simazine],2.1
21,CCc1cccc(C)c1N(COC(C)C)C(=O)CCl [propisochlor],3.5
22,C#CC(C)(C)NC(=O)c1cc(Cl)cc(Cl)c1 [propyzamide],3.2

row,Structure (SMILES),Log Pow
1,COc1ccc(NC(=O)N(C)C)cc1Cl [metoxuron],1.6
2,CCOC(=O)c1cnn(C)c1S(=O)(=O)NC(=O)Nc1nc(OC)cc(OC)n1 [pyrazosulfuron-ethyl],1.3
3,CCCCCCCCSC(=O)Oc1cc(Cl)nnc1-c1ccccc1 [pyridate],4
4,CC(C)C1(C)N=C(c2nc3ccccc3cc2C(=O)O)NC1=O (stereo not shown) [imazaquin],2.9
5,CCCCOC(=O)[C@@H](C)Oc1ccc(Oc2ccc(C(F)(F)F)cn2)cc1 [fluazifop-p-butyl],4.5
6,COc1cc(OC)nc(Oc2cccc(Oc3nc(OC)cc(OC)n3)c2C(=O)ON=C(c2ccccc2)c2ccccc2)n1 [pyribenzoxim],3
7,CCOC1Oc2ccc(OS(C)(=O)=O)cc2C1(C)C (stereo not shown) [ethofumesate],2.7
8,C#CCN1C(=O)COc2cc(F)c(N3C(=O)C4=C(CCCC4)C3=O)cc21 [flumioxazin],1.3
9,CCOc1cc(Oc2ccc(C(F)(F)F)cc2Cl)ccc1[N+](=O)[O-] [oxyfluorfen],4.5
10,CCNc1nc(NC(C)(C)C)nc(OC)n1 [terbumeton],3
11,Cc1cccc(C)c1N(Cn1cccn1)C(=O)CCl [metazachlor],2.1
12,CNc1cnn(-c2cccc(C(F)(F)F)c2)c(=O)c1Cl [norflurazon],2.5
13,Cc1ccc(C(=O)COc2c(C(=O)c3ccc(Cl)c(C)c3Cl)c(C)nn2C)cc1 [benzofenap],4.7
14,CCC(=O)Nc1ccc(Cl)c(Cl)c1 [propanil],3.3
15,CCCCOC(=O)C(C)Oc1ccc(Oc2ccc(C(F)(F)F)cn2)cc1 (stereo not shown) [fluazifop-butyl],4.5
16,C[C@@H](Oc1ccc(Oc2ccc(C(F)(F)F)cn2)cc1)C(=O)O [fluazifop-P],3.1
17,COC(=O)c1cc(Oc2ccc(Cl)cc2Cl)ccc1[N+](=O)[O-] [bifenox],4.5
18,CCOCCOC(=O)C(C)Oc1ccc(Oc2ncc(C(F)(F)F)cc2Cl)cc1 (stereo not shown) [haloxyfop-etotyl],4.3
19,COc1ccsc1CN(C(=O)CCl)c1c(C)cccc1C [thenylchlor],3.5
20,CC(Oc1ccc(Oc2ncc(C(F)(F)F)cc2Cl)cc1)C(=O)O (stereo not shown) [haloxyfop],3.4
21,C#CCOc1cc(-n2nc3n(c2=O)CCCC3)c(Cl)cc1Cl [azafenidin],2.7

# Same assay, conditions: Table 5, pH 5; cited from earlier work
row,Structure (SMILES),Log Pow
1,O=C(O)COc1nc(Cl)c(Cl)cc1Cl [triclopyr],0.4 (pH 5)

# Same assay, conditions: Table 5, pH 7; cited from earlier work
row,Structure (SMILES),Log Pow
1,COC(=O)c1ccccc1S(=O)(=O)NC(=O)Nc1nc(OC(F)F)cc(OC(F)F)n1 [primisulfuron-methyl],0.2 (pH 7)

# Same assay, conditions: Table 6; cited from earlier work
row,Structure (SMILES),logP
1,N#Cc1cc(Br)c(O)c(Br)c1 [bromoxynil],2.8
2,CCOC(=O)Cc1cccc2ccccc12 [ethyl 1-naphthylacetate],3.8
3,CCC(CC)Nc1c([N+](=O)[O-])cc(C)c(C)c1[N+](=O)[O-] [pendimethalin],5.2
4,O=C(OCc1ccccc1)c1sc(Cl)nc1C(F)(F)F [flurazole],4.1
5,CCOc1cc(Oc2ccc(C(F)(F)F)cc2Cl)ccc1[N+](=O)[O-] [oxyfluorfen],4.5
6,CNc1cnn(-c2cccc(C(F)(F)F)c2)c(=O)c1Cl [norflurazon],2.45

# Same assay, conditions: pH 1; cited from earlier work
row,Structure (SMILES),Log Pow
1,"Cc1cc(Cl)ccc1OCC(=O)O [MCPA, (4-chloro-2-methylphenoxy)acetic acid]",2.8 (pH 1)
2,CS(=O)(=O)NC(=O)c1cc(Oc2ccc(C(F)(F)F)cc2Cl)ccc1[N+](=O)[O-] [fomesafen],2.9 (pH 1)

# Same assay, conditions: pH 2; cited from earlier work
row,Structure (SMILES),Log P
1,CS(=O)(=O)c1cc(Cl)ccc1C(=O)c1cnoc1C1CC1 [Isoxachlortole],2.76 (pH 2)

# Same assay, conditions: pH 3.9; cited from earlier work
row,Structure (SMILES),Log Pow
1,COC(=O)Nc1cccc(OC(=O)Nc2cccc(C)c2)c1 [phenmedipham],3.6 (pH 3.9)

# Same assay, conditions: pH 5; cited from earlier work
row,Structure (SMILES),Log Pow
1,COC(=O)c1ccccc1S(=O)(=O)NC(=O)Nc1nc(C)cc(C)n1 [sulfometuron-methyl],1.2 (pH 5)

# Same assay, conditions: pH 7; cited from earlier work
row,Structure (SMILES),Log P
1,CC(C)c1nn(C(=O)NC(C)(C)C)c(=O)n1N [amicarbazone],1.23 (pH 7)
2,CCc1cnc(C2=NC(C)(C(C)C)C(=O)N2)c(C(=O)O)c1 (stereo not shown) [imazethapyr],1.49 (pH 7)

# Same assay, conditions: pH 9; cited from earlier work
row,Structure (SMILES),Log Pow
1,COc1cc(OC)n2nc(S(=O)(=O)Nc3c(Cl)ccc(C)c3Cl)nc2n1 [metosulam],3.1 (pH 9)
